Reference: PubChem BioAssay AID256 (DTP/NCI, 2004)
“And” between values parts separate entries of the source, which are not always exact repeats. Equal entries are not always repeated. Inconclusive results and toxic doses are left out.

Test system: CD2F1 mice, L1210 leukemia ip, survival T/C
Assay: NCI In Vivo Anticancer Drug Screen. Data for tumor model L1210 Leukemia (intraperitoneal) in CD2F1 (CDF1) mice
Details: higher = longer survival
Method in brief: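 Tumor-bearing mice (transplanted tumor) were split into treated and vehicle control groups, and the measured endpoint of each treated group was divided by that of its vehicle controls.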

[1] = endpoint: median survival time, dose: 50.0 mg/kg/injection, schedule: Q04DX002 (ip), vehicle: saline with Tween-80
[2] = endpoint: median survival time, dose: 100.0 mg/kg/injection, schedule: Q04DX002 (ip), vehicle: saline with Tween-80
[3] = endpoint: median survival time, dose: 200.0 mg/kg/injection, schedule: Q04DX002 (ip), vehicle: saline with Tween-80
[4] = endpoint: mean survival time, dose: 50.0 mg/kg/injection, schedule: Q01DX009 (ip), vehicle: saline with Tween-80
[5] = endpoint: mean survival time, dose: 100.0 mg/kg/injection, schedule: Q01DX009 (ip), vehicle: saline with Tween-80
[6] = endpoint: mean survival time, dose: 100.0 mg/kg/injection, schedule: Q04DX003 (ip), vehicle: saline with Tween-80
[7] = endpoint: mean survival time, dose: 200.0 mg/kg/injection, schedule: Q01DX009 (ip), vehicle: saline with Tween-80
[8] = endpoint: mean survival time, dose: 200.0 mg/kg/injection, schedule: Q04DX003 (ip), vehicle: saline with Tween-80
[9] = endpoint: mean survival time, dose: 25.0 mg/kg/injection, schedule: Q01DX009 (ip), vehicle: saline with Tween-80
[10] = endpoint: mean survival time, dose: 200.0 mg/kg/injection, schedule: Q01DX001 (ip), vehicle: saline with Tween-80
[11] = endpoint: mean survival time, dose: 400.0 mg/kg/injection, schedule: Q01DX001 (ip), vehicle: saline with Tween-80
[12] = endpoint: mean survival time, dose: 400.0 mg/kg/injection, schedule: Q04DX003 (ip), vehicle: saline with Tween-80
[13] = endpoint: mean survival time, dose: 100.0 mg/kg/injection, schedule: Q04DX003 (ip), vehicle: acetone
[14] = endpoint: mean survival time, dose: 100.0 mg/kg/injection, schedule: Q01DX009 (ip), vehicle: saline

## CS(=O)(=O)c1ccccn1
endpoint: mean survival time, dose: 100.0 mg/kg/injection, schedule: Q01DX001 (ip), vehicle: saline sonified
  T/C: 100 % of control
endpoint: mean survival time, dose: 200.0 mg/kg/injection, schedule: Q01DX001 (ip), vehicle: saline sonified
  T/C: 97 % of control
endpoint: mean survival time, dose: 400.0 mg/kg/injection, schedule: Q01DX001 (ip), vehicle: saline sonified
  T/C: 100 % of control

## S=C1Nc2ccccc2CS1
endpoint: mean survival time, dose: 100.0 mg/kg/injection, schedule: Q01DX001 (ip), vehicle: Klucel (hydroxypropylcellulose) (HPC)
  T/C: 105 % of control
endpoint: mean survival time, dose: 200.0 mg/kg/injection, schedule: Q01DX001 (ip), vehicle: Klucel (hydroxypropylcellulose) (HPC)
  T/C: 102 % of control
endpoint: mean survival time, dose: 400.0 mg/kg/injection, schedule: Q01DX001 (ip), vehicle: Klucel (hydroxypropylcellulose) (HPC)
  T/C: 103 % of control

## C(=N/N=C/c1ccsc1)/c1ccsc1
[1]
  T/C: 90 % of control
[2]
  T/C: 90 % of control
[3]
  T/C: 90 % of control
endpoint: median survival time, dose: 400.0 mg/kg/injection, schedule: Q04DX002 (ip), vehicle: saline with Tween-80
  T/C: 90 % of control

## CCCC1=CC(C)(C)CC(C)=C1 (tested in a mixture with another compound)
[4]
  T/C: 98 % of control
[5]
  T/C: 96 % of control
[6]
  T/C: 102 % of control
[7]
  T/C: 100 % of control
[8]
  T/C: 100 % of control

## O=C(O)c1cc2c(Cl)cccc2[nH]1
[9]
  T/C: 109 % of control
[4]
  T/C: 98 % of control
[5]
  T/C: 94 % of control
[6]
  T/C: 106 % of control

## Nc1ccccc1C1=Nc2cncnc2NC1
endpoint: mean survival time, dose: 75.0 mg/kg/injection, schedule: Q01DX001 (ip), vehicle: saline
  T/C: 104 % of control
endpoint: mean survival time, dose: 150.0 mg/kg/injection, schedule: Q01DX001 (ip), vehicle: saline
  T/C: 102 % of control
endpoint: mean survival time, dose: 300.0 mg/kg/injection, schedule: Q01DX001 (ip), vehicle: saline
  T/C: 93 % of control

## CCOC(=O)CC(=O)NCCc1ccccc1OC
endpoint: mean survival time, dose: 100.0 mg/kg/injection, schedule: Q01DX001 (ip), vehicle: saline with Tween-80
  T/C: 102 % of control
[10]
  T/C: 105 % of control
[11]
  T/C: 102 % of control

## CC(C)c1cc(C(C)C)n2nc(N)nc2n1
[6]
  T/C: 106 % of control
[8]
  T/C: 98 % of control
[12]
  T/C: 97 % of control

## Cc1ccccc1OP(=O)(c1ccccc1)c1ccccc1
[6]
  T/C: 100 % of control
[8]
  T/C: 105 % of control
[12]
  T/C: 110 % of control

## Cc1cn(C2OC3COC2C3O)c(=O)[nH]c1=O (stereo not given)
endpoint: median survival time, dose: 12.5 mg/kg/injection, schedule: Q01DX005 (ip), vehicle: saline with Tween-80
  T/C: 97 % of control
endpoint: median survival time, dose: 25.0 mg/kg/injection, schedule: Q01DX005 (ip), vehicle: saline with Tween-80
  T/C: 97 % of control
endpoint: median survival time, dose: 50.0 mg/kg/injection, schedule: Q01DX005 (ip), vehicle: saline with Tween-80
  T/C: 94 % of control
endpoint: median survival time, dose: 100.0 mg/kg/injection, schedule: Q01DX005 (ip), vehicle: saline with Tween-80
  T/C: 102 % of control
endpoint: median survival time, dose: 200.0 mg/kg/injection, schedule: Q01DX005 (ip), vehicle: saline with Tween-80
  T/C: 105 % of control

## O=C(O)CC12CCCCC1CCCC2 (stereo not given)
[13]
  T/C: 95 % of control
endpoint: mean survival time, dose: 200.0 mg/kg/injection, schedule: Q04DX003 (ip), vehicle: acetone
  T/C: 91 % of control
endpoint: mean survival time, dose: 400.0 mg/kg/injection, schedule: Q04DX003 (ip), vehicle: acetone
  T/C: 90 % of control

## Cc1nc(Cl)cc(Cl)c1C
endpoint: mean survival time, dose: 178.0 mg/kg/injection, schedule: Q04DX003 (ip), vehicle: other
  T/C: 100 % of control
endpoint: mean survival time, dose: 266.0 mg/kg/injection, schedule: Q04DX003 (ip), vehicle: other
  T/C: 100 % of control
endpoint: mean survival time, dose: 400.0 mg/kg/injection, schedule: Q04DX003 (ip), vehicle: other
  T/C: 95 % of control
endpoint: mean survival time, dose: 600.0 mg/kg/injection, schedule: Q04DX003 (ip), vehicle: other
  T/C: 105 % of control

## CC(C)(C)c1ccccc1O[Si](C)(C)C
[4]
  T/C: 105 % of control
[5]
  T/C: 94 % of control
[6]
  T/C: 97 % of control
[8]
  T/C: 94 % of control

## CCCCCCCS(=O)CCCl (stereo not given)
endpoint: mean survival time, dose: 100.0 mg/kg/injection, schedule: Q04DX002 (ip), vehicle: saline with Tween-80
  T/C: 96 % of control
endpoint: mean survival time, dose: 200.0 mg/kg/injection, schedule: Q04DX002 (ip), vehicle: saline with Tween-80
  T/C: 108 % of control

## O=[N+]([O-])c1ccc(S/C=C/c2ccccc2)cc1
endpoint: median survival time, dose: 25.0 mg/kg/injection, schedule: Q04DX002 (ip), vehicle: saline with Tween-80
  T/C: 100 % of control
[1]
  T/C: 110 % of control
[2]
  T/C: 100 % of control
[3]
  T/C: 100 % of control

## CCOC(=O)C1=C(C)/C(=C/c2[n-]c(C)c(C(=O)OCC)c2C)N=C1C.CCOC(=O)C1=C(C)/C(=C/c2[n-]c(C)c(C(=O)OCC)c2C)N=C1C.[Co+2]
endpoint: mean survival time, dose: 50.0 mg/kg/injection, schedule: Q01DX001 (ip), vehicle: saline with Tween-80
  T/C: 91 % of control
[10]
  T/C: 87 % of control
[11]
  T/C: 91 % of control

## CC(=O)OC1CCC2(C)CCCC(O)C2(O)C1 (stereo not given)
[9]
  T/C: 103 % of control
[4]
  T/C: 116 % of control
[5]
  T/C: 107 % of control
[13]
  T/C: 101 % of control
endpoint: mean survival time, dose: 150.0 mg/kg/injection, schedule: Q01DX009 (ip), vehicle: saline
  T/C: 97 % of control
endpoint: mean survival time, dose: 225.0 mg/kg/injection, schedule: Q01DX009 (ip), vehicle: saline
  T/C: 100 % of control
endpoint: mean survival time, dose: 335.0 mg/kg/injection, schedule: Q01DX009 (ip), vehicle: saline
  T/C: 91 % of control

## CCC1(OC(=O)CN)C(=O)OCc2c1cc1n(c2=O)Cc2cc3ccccc3nc2-1 (stereo not given)
endpoint: median survival time, dose: 7.5 mg/kg/injection, schedule: Q04DX002 (ip), vehicle: saline
  T/C: 117 % of control and 122 % of control
endpoint: median survival time, dose: 7.5 mg/kg/injection, schedule: Q04HX004 (iv), vehicle: dextrose
  T/C: 175 % of control
endpoint: median survival time, dose: 7.5 mg/kg/injection, schedule: Q04HX004 (iv), vehicle: other
  T/C: 186 % of control
endpoint: median survival time, dose: 15.0 mg/kg/injection, schedule: Q04HX004 (iv), vehicle: dextrose
  T/C: 172 % of control
endpoint: median survival time, dose: 15.0 mg/kg/injection, schedule: Q04HX004 (iv), vehicle: other
  T/C: 204 % of control
endpoint: median survival time, dose: 30.0 mg/kg/injection, schedule: Q04DX002 (ip), vehicle: saline
  T/C: 191 % of control and 213 % of control
endpoint: median survival time, dose: 30.0 mg/kg/injection, schedule: Q04HX004 (iv), vehicle: dextrose
  T/C: 226 % of control
endpoint: median survival time, dose: 30.0 mg/kg/injection, schedule: Q04HX004 (iv), vehicle: other
  T/C: 219 % of control
endpoint: median survival time, dose: 40.0 mg/kg/injection, schedule: Q04HX004 (iv), vehicle: other
  T/C: 217 % of control

## CCOC(=O)C1(C(=O)OCC)COC(C)(C)OC1
[14]
  T/C: 93 % of control
endpoint: mean survival time, dose: 200.0 mg/kg/injection, schedule: Q01DX009 (ip), vehicle: saline
  T/C: 94 % of control
endpoint: mean survival time, dose: 400.0 mg/kg/injection, schedule: Q01DX009 (ip), vehicle: saline
  T/C: 94 % of control

## CN(C)S(=O)(=O)c1ccccc1C(O)(c1ccccc1)c1ccccc1 (tested in a mixture with another compound)
[6]
  T/C: 92 % of control
[8]
  T/C: 87 % of control
[12]
  T/C: 98 % of control

## N=C(N)c1ccccc1
endpoint: mean survival time, dose: 100.0 mg/kg/injection, schedule: Q01DX001 (ip), vehicle: saline
  T/C: 94 % of control
endpoint: mean survival time, dose: 200.0 mg/kg/injection, schedule: Q01DX001 (ip), vehicle: saline
  T/C: 100 % of control
endpoint: mean survival time, dose: 400.0 mg/kg/injection, schedule: Q01DX001 (ip), vehicle: saline
  T/C: 94 % of control

## Nc1cccc2nc3ccccc3cc12
[5]
  T/C: 93 % of control
[6]
  T/C: 92 % of control
[7]
  T/C: 95 % of control
[8]
  T/C: 94 % of control
[12]
  T/C: 91 % of control

## Cc1cc(C)c(NC(=O)c2cccc(Cl)c2)c(C)c1
[5]
  T/C: 104 % of control
[6]
  T/C: 94 % of control
[7]
  T/C: 98 % of control
[8]
  T/C: 96 % of control
endpoint: mean survival time, dose: 400.0 mg/kg/injection, schedule: Q01DX009 (ip), vehicle: saline with Tween-80
  T/C: 105 % of control
[12]
  T/C: 88 % of control

## [N-]=[N+]=NCC1OC(OC2(CO)OC(CN=[N+]=[N-])C(O)C2O)C(O)C(O)C1O (stereo not given)
endpoint: mean survival time, dose: 50.0 mg/kg/injection, schedule: Q01DX009 (ip), vehicle: saline
  T/C: 102 % of control
[14]
  T/C: 102 % of control

## C1CC[N-]CC1.[Cl][Pt+2][Cl].[NH-]C1CC1
endpoint: mean survival time, dose: 3.0 mg/kg/injection, schedule: Q04DX003 (ip), vehicle: water
  T/C: 100 % of control
endpoint: mean survival time, dose: 6.25 mg/kg/injection, schedule: Q01DX009 (ip), vehicle: distilled water + Tween-80
  T/C: 120 % of control
endpoint: mean survival time, dose: 6.25 mg/kg/injection, schedule: Q01DX009 (ip), vehicle: water
  T/C: 118 % of control
endpoint: mean survival time, dose: 25.0 mg/kg/injection, schedule: Q01DX009 (ip), vehicle: water
  T/C: 119 % of control
endpoint: mean survival time, dose: 25.0 mg/kg/injection, schedule: Q04DX003 (ip), vehicle: distilled water + Tween-80
  T/C: 90 % of control
endpoint: mean survival time, dose: 25.0 mg/kg/injection, schedule: Q04DX003 (ip), vehicle: water
  T/C: 90 % of control
